The source of these data is patent publication US10385057B2, “Pyrazole compounds and methods of making and using same” (Lundbeck La Jolla Research Center, Inc., priority 2015, dated 2019).

In one assay the target is T1, MAGL (Mus musculus, UniProt O35678).
T1 construct: mouse brain membrane fraction or cell lysates for mouse assays; from tissue
T1 sequence (O35678 1-303): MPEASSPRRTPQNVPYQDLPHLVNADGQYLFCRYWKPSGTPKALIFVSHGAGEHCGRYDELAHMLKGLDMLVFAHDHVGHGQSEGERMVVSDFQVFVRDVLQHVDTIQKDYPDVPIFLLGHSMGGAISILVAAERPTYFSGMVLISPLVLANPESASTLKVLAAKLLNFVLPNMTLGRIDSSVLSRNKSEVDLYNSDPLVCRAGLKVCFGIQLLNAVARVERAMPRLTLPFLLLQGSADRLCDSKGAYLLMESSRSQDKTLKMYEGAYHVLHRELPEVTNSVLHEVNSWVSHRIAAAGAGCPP
Briefly: In vitro competitive activity-based protein profiling, mouse MAGL. The class given is biochemical. Conditions: for inhibition at 1 µM: read-out: MAGL % inh. 1 μM (mouse). How it is done:
(§1) In Vitro Competitive Activity-Based Protein Profiling.
(§2) Proteomes (mouse brain membrane fraction or cell lysates for mouse assays; human prefrontal cortex or cell membrane fractions for human assays) (50 μL, 1.0 mg/mL total protein concentration) were preincubated with varying concentrations of inhibitors at 37° C. After 30 min, FP-Rh or HT-01 (1.0 μL, 50 μM in DMSO) was added and the mixture was incubated for another 30 min at 37° C. Reactions were quenched with SDS loading buffer (15 μL—4×) and run on SDS-PAGE. Following gel imaging, serine hydrolase activity was determined by measuring fluorescent intensity of gel bands corresponding to MAGL and FAAH using ImageJ 1.43u software.

The target in the next assay is T2, FAAH (Mus musculus, UniProt O08914).
T2 construct: mouse brain membrane fraction or cell lysates for mouse assays; from tissue
T2 sequence (O08914 1-579): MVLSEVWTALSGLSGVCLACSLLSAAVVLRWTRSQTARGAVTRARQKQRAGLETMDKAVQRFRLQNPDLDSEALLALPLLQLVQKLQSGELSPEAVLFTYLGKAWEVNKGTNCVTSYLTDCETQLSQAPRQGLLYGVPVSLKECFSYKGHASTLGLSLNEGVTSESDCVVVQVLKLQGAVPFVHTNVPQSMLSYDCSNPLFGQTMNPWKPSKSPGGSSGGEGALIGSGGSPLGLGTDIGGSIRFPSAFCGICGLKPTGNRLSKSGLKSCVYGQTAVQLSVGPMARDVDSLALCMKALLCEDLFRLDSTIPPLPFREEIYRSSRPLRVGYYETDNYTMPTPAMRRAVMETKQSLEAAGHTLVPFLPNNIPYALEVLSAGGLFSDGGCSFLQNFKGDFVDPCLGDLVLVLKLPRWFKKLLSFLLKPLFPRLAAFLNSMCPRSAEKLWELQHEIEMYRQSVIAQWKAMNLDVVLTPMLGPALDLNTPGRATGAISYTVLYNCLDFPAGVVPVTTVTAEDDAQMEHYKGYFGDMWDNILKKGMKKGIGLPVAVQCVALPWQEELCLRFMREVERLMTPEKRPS
Briefly: In vitro competitive activity-based protein profiling, mouse FAAH. The class given is biochemical. Conditions: for inhibition at 1 µM: read-out: FAAH % inh. 1 μM (mouse). How it is done: as §1, §2

The structures appear in SMILES notation.

One may read the IC50 as the midpoint of a concentration-inhibition curve. Read a low IC50 as greater potency.

`O=C(N1CCC2(CCN(Cc3cccc(Cl)c3)C2)C1)n1cc(Cl)cn1` (single isomer, unassigned) [Example 132, (4-chloro-1H-pyrazol-1-yl)(7-(3-chlorobenzyl)-2,7-diazaspiro[4.4]nonan-2-yl)methanone]: at MAGL, the IC50 is 100 to 1000 nM and the inhibition at 1 µM was at least 75%. At FAAH, the IC50 was at most 100 nM and the inhibition at 1 µM was at least 75%.

In the case of `O=C(N1CCC2(CCN(Cc3cccc(Cl)c3)C2)C1)n1cc(Cl)cn1` (single isomer, unassigned) [Example 133, (4-chloro-1H-pyrazole-1-carbonyl)-7-[(3-chlorophenyl)methyl]-2,7-diazaspiro[4.4]nonane], the 50% inhibitory concentration (IC50) was 100 to 1000 nM at MAGL and at most 100 nM on FAAH.

In the case of `O=C(N1CCC2(CCN(Cc3ccc(Cl)c(Cl)c3)C2)C1)n1cc(Cl)cn1` (single isomer, unassigned) [Example 139, (4-chloro-1H-pyrazol-1-yl)(7-(3,4-dichlorobenzyl)-2,7-diazaspiro[4.4]nonan-2-yl)methanone], the results for the IC50 at MAGL and at FAAH were 100 to 1000 nM and at most 100 nM, respectively.

Take `O=C(N1CCC2(CCN(Cc3ccc(Cl)c(Cl)c3)C2)C1)n1cc(Cl)cn1` (single isomer, unassigned) [Example 140, (4-chloro-1H-pyrazol-1-yl)(7-(3,4-dichlorobenzyl)-2,7-diazaspiro[4.4]nonan-2-yl)methanone]: the IC50 on MAGL and at FAAH was at most 100 nM throughout.

As for `O=C(c1cnn(C(=O)N2CC3CN(Cc4ccccc4Cl)CC3C2)c1)N1CCCCC1` (stereo not drawn) [Example 1, (5-(2-chlorobenzyl)hexahydropyrrolo[3,4-c]pyrrol-2(1H)-yl)(4-(piperidine-1-carbonyl)-1H-pyrazol-1-yl)methanone], on MAGL, the half-maximal inhibitory concentration (IC50) fell in the range of 1000 to 10000 nM and the inhibition at 1 µM lay within 25 to 50%. For the same compound, at FAAH, the concentration for half-maximal inhibition (IC50) was at most 100 nM and the inhibition at 1 µM was at least 75%.

Consider `NC(=O)c1cnn(C(=O)N2CC3CN(Cc4ccc(N5CCOCC5)cc4C(F)(F)F)CC3C2)c1` (stereo not drawn) [Example 2, 1-(5-(4-morpholino-2-(trifluoromethyl)benzyl)octahydropyrrolo[3,4-c]pyrrole-2-carbonyl)-1H-pyrazole-4-carboxamide], for which, at MAGL, the 50% inhibitory concentration (IC50) is at most 100 nM and the inhibition at 1 µM is at least 75%. Moreover, at FAAH, the 50% inhibitory concentration (IC50) was at most 100 nM and the inhibition at 1 µM was at least 75%.

Consider `O=C(c1cnn(C(=O)N2CC3CN(Cc4cccc(Cl)c4)CC3C2)c1)N1CCCCC1` (stereo not drawn) [Example 3, (5-(3-chlorobenzyl)hexahydropyrrolo[3,4-c]pyrrol-2(1H)-yl)(4-(piperidine-1-carbonyl)-1H-pyrazol-1-yl)methanone], for which, at MAGL, the IC50 was in the range of 1000 to 10000 nM and the inhibition at 1 µM lay within 50 to 75%. In addition, at FAAH, the 50% inhibitory concentration (IC50) lay within 100 to 1000 nM and the inhibition at 1 µM was at least 75%.

With `O=C(c1cnn(C(=O)N2CC3CN(Cc4ccc(Cl)cc4)CC3C2)c1)N1CCCCC1` (stereo not drawn) [Example 4, (5-(4-chlorobenzyl)hexahydropyrrolo[3,4-c]pyrrol-2(1H)-yl)(4-(piperidine-1-carbonyl)-1H-pyrazol-1-yl)methanone], the results for the IC50 on MAGL and on FAAH were 1000 to 10000 nM and 100 to 1000 nM, respectively. The inhibition at 1 µM is 25 to 50% on MAGL and at least 75% at FAAH.

On to `O=C(c1cnn(C(=O)N2CC3CN(Cc4cc(Cl)ccc4Cl)CC3C2)c1)N1CCOCC1` (stereo not drawn) [Example 5, (5-(2,5-dichlorobenzyl)hexahydropyrrolo[3,4-c]pyrrol-2(1H)-yl)(4-(morpholine-4-carbonyl)-1H-pyrazol-1-yl)methanone], for which the inhibition at 1 µM on MAGL and on FAAH was at least 75% each time.

Regarding `O=C(c1cnn(C(=O)N2CC3CN(Cc4cc(Cl)ccc4Cl)CC3C2)c1)N1CCN(C2CC2)CC1` (stereo not drawn) [Example 6, (4-cyclopropylpiperazin-1-yl)(1-(5-(2,5-dichlorobenzyl)octahydropyrrolo[3,4-c]pyrrole-2-carbonyl)-1H-pyrazol-4-yl)methanone], the inhibition at 1 µM is at least 75% at MAGL and 0 to 25% on FAAH.

With `O=C(c1cnn(C(=O)N2CC3CN(Cc4cccc(C(F)(F)F)c4)CC3C2)c1)N1CCOCC1` (stereo not drawn) [Example 7, (4-(morpholine-4-carbonyl)-1H-pyrazol-1-yl)(5-(3-(trifluoromethyl)benzyl)hexahydropyrrolo[3,4-c]pyrrol-2(1H)-yl)methanone], the inhibition at 1 µM at MAGL and on FAAH was at least 75% each time.

As for `O=C(c1cnn(C(=O)N2CC3CN(Cc4cccc(C(F)(F)F)c4)CC3C2)c1)N1CCN(C2CC2)CC1` (stereo not drawn) [Example 8, (4-cyclopropylpiperazin-1-yl)(1-(5-(3-(trifluoromethyl)benzyl)octahydropyrrolo[3,4-c]pyrrole-2-carbonyl)-1H-pyrazol-4-yl)methanone], the inhibition at 1 µM at MAGL and at FAAH was at least 75% throughout.

On to `O=C(c1cnn(C(=O)N2CC3CN(Cc4cc(Cl)cc(C(F)(F)F)c4)CC3C2)c1)N1CCCC1` (stereo not drawn) [Example 9, (5-(3-chloro-5-(trifluoromethyl)benzyl)hexahydropyrrolo[3,4-c]pyrrol-2(1H)-yl)(4-(pyrrolidine-1-carbonyl)-1H-pyrazol-1-yl)methanone], for which the inhibition at 1 µM at MAGL and on FAAH was at least 75% each time.

Take `O=C(c1cnn(C(=O)N2CC3CN(Cc4cc(Cl)cc(C(F)(F)F)c4)CC3C2)c1)N1CCOCC1` (stereo not drawn) [Example 10, (5-(3-chloro-5-(trifluoromethyl)benzyl)hexahydropyrrolo[3,4-c]pyrrol-2(1H)-yl)(4-(morpholine-4-carbonyl)-1H-pyrazol-1-yl)methanone]: the inhibition at 1 µM at MAGL and on FAAH was at least 75% throughout.

Turning to `O=C(c1cnn(C(=O)N2CC3CN(Cc4cc(Cl)cc(C(F)(F)F)c4)CC3C2)c1)N1CCN(C2CC2)CC1` (stereo not drawn) [Example 11, (5-(3-chloro-5-(trifluoromethyl)benzyl)hexahydropyrrolo[3,4-c]pyrrol-2(1H)-yl)(4-(4-cyclopropylpiperazine-1-carbonyl)-1H-pyrazol-1-yl)methanone], the inhibition at 1 µM on MAGL and on FAAH was at least 75% throughout.

For the compound `O=C(c1cnn(C(=O)N2CC3CN(Cc4ccc(N5CCOCC5)cc4C(F)(F)F)CC3C2)c1)N1CCCC1` (stereo not drawn) [Example 12, (5-(4-morpholino-2-(trifluoromethyl)benzyl)hexahydropyrrolo[3,4-c]pyrrol-2(1H)-yl)(4-(pyrrolidine-1-carbonyl)-1H-pyrazol-1-yl)methanone], the inhibition at 1 µM on MAGL and at FAAH was at least 75% each time.

Take `O=C(c1cnn(C(=O)N2CC3CN(Cc4ccc(N5CCOCC5)cc4C(F)(F)F)CC3C2)c1)N1CCOCC1` (stereo not drawn) [Example 13, (4-(morpholine-4-carbonyl)-1H-pyrazol-1-yl)(5-(4-morpholino-2-(trifluoromethyl)benzyl)hexahydropyrrolo[3,4-c]pyrrol-2(1H)-yl)methanone]: the inhibition at 1 µM on MAGL and at FAAH was at least 75% throughout.

Turning to `O=C(c1cnn(C(=O)N2CC3CN(Cc4ccc(N5CCOCC5)cc4C(F)(F)F)CC3C2)c1)N1CCN(C2CC2)CC1` (stereo not drawn) [Example 14, (4-cyclopropylpiperazin-1-yl)(1-(5-(4-morpholino-2-(trifluoromethyl)benzyl)octahydropyrrolo[3,4-c]pyrrole-2-carbonyl)-1H-pyrazol-4-yl)methanone], on MAGL, the IC50 lay within 100 to 1000 nM and the inhibition at 1 µM was at least 75%. Moreover, on FAAH, the IC50 was 1000 to 10000 nM and the inhibition at 1 µM was at least 75%.

Turning to `O=C(c1cnn(C(=O)N2CC3CN(Cc4cccc(C(F)(F)F)c4)CC3C2)c1)N1CCCC1` (stereo not drawn) [Example 15, pyrrolidin-1-yl(1-(5-(3-(trifluoromethyl)benzyl)octahydropyrrolo[3,4-c]pyrrole-2-carbonyl)-1H-pyrazol-4-yl)methanone], the inhibition at 1 µM on MAGL and on FAAH was at least 75% in each case.

Take `NC(=O)c1cnn(C(=O)N2CC3CN(Cc4ccc(Cl)cc4)CC3C2)c1` (stereo not drawn) [Example 16, 1-(5-(4-chlorobenzyl)octahydropyrrolo[3,4-c]pyrrole-2-carbonyl)-1H-pyrazole-4-carboxamide]: the half-inhibitory concentration (IC50) at MAGL was 100 to 1000 nM; at FAAH it was at most 100 nM. The inhibition at 1 µM on MAGL and at FAAH was at least 75% throughout.
